# From ChEMBL document CHEMBL4342517, “Design, Synthesis, and Mechanism Study of Benzenesulfonamide-Containing Phenylalanine Derivatives as Novel HIV-1 Capsid Inhibitors with Improved Antiviral Activities” (J Med Chem, 2020)
# Calls of active or inactive are those of the source. The calls are words filed in the database; no cut-off is given here.
# What was measured:
# MT4 = assay: Cytotoxicity in mock-infected human MT4 assessed as reduction in cell viability incubated for 5 days by MTT assay; assay type: cell-based; settings: mt4, 120 h
# [1] = Volume of distribution in Sprague-Dawley rat at 2 mg/kg, iv measured during 5 mins to 12 hrs by LC-MS analysis; assay type: ADME, organism-based; settings: in vivo
# [2] = AUC (0 to infinity) in Sprague-Dawley rat at 2 mg/kg, iv measured during 5 mins to 12 hrs by LC-MS analysis; assay type: ADME, organism-based; design: dose 2 mg/kg, time infinity, route intravenous; settings: in vivo
# [3] = system: Human immunodeficiency virus 1; assay: Antiviral activity against HIV1 Env-pseudotyped virus in human U87.CD4.CCR5 target cells assessed as reduction in viral infection at late stage; assay type: functional, organism-based; settings: Human immunodeficiency virus 1, U87/CD4/CCR5
# [4] = Oral bioavailability in Sprague-Dawley rat at 20 mg/kg measured during 5 mins to 12 hrs by LC-MS analysis; assay type: ADME, organism-based; settings: in vivo
# [5] = system: Human immunodeficiency virus 1; assay: Antiviral activity against HIV1 NL4-3 infected in human TZM-bl cells assessed as reduction in virus induced cytopathogenicity incubated for 1 day by luciferase reporter gene assay; assay type: functional, organism-based; settings: Human immunodeficiency virus 1, NL4-3, TZM-bl, 24 h
# [6] = AUC (0 to infinity) in Sprague-Dawley rat at 20 mg/kg, po measured during 5 mins to 12 hrs by LC-MS analysis; assay type: ADME, organism-based; design: dose 20 mg/kg, time infinity, route oral; settings: in vivo
# [7] = Acute toxicity in Kunming mouse assessed as induction of abnormal behaviors by measuring lethargy at 1000 mg/kg, ig administered as single dose; assay type: organism-based; settings: in vivo, po
# [8] = Mean residence time (0 to infinity) in Sprague-Dawley rat at 2 mg/kg, iv measured during 5 mins to 12 hrs by LC-MS analysis; settings: in vivo
# [9] = system: Human immunodeficiency virus 2; assay: Antiviral activity against HIV2 ROD infected in human MT4 cells assessed as reduction in virus-induced cell death incubated for 5 days by MTT assay; settings: Human immunodeficiency virus 2, ISOLATE ROD, MT4, 120 h
# [10] = molecular target: Structural capsid protein (Human immunodeficiency virus 1) (UniProt Q76129); assay: Inhibition of HIV1 NL4-3 capsid protein assembly at 50 uM measured every 1 min for 19 mins
# in vitro [11] = settings: human, liver microsomes
# Description: Stability in human liver microsomes assessed as compound remaining level incubated for 60 mins in absence of NADPH regenerating system by LC-MS/MS analysis
# [12] = Mean residence time (0 to infinity) in Sprague-Dawley rat at 20 mg/kg, po measured during 5 mins to 12 hrs by LC-MS analysis; settings: in vivo
# [13] = Acute toxicity in Kunming mouse assessed as increase in body weight at 1000 mg/kg, ig administered as single dose; assay type: organism-based; settings: in vivo, po
# in vitro [14] = settings: human, liver microsomes; remark: listed apart in the source
# Description: Stability in human liver microsomes assessed as compound remaining level incubated for 60 mins in presence of NADPH regenerating system by LC-MS/MS analysis
# [15] = AUC (0 to t) in Sprague-Dawley rat at 2 mg/kg, iv measured during 5 mins to 12 hrs by LC-MS analysis; assay type: ADME, organism-based; design: dose 2 mg/kg, time 0.083-12 hr, route intravenous; settings: in vivo
# [16] = Acute toxicity in Kunming mouse assessed as induction of animal death at 1000 mg/kg, ig administered as single dose; assay type: organism-based; settings: in vivo, po
# in vivo [17] = settings: Sprague-Dawley, rat, po, 20 mg/kg
# [18] = Acute toxicity in Kunming mouse assessed as induction of abnormal behaviors by measuring ruffled fur at 1000 mg/kg, ig administered as single dose; assay type: organism-based; settings: in vivo, po
# [19] = Cmax in Sprague-Dawley rat at 2 mg/kg, iv measured during 5 mins to 12 hrs by LC-MS analysis; assay type: ADME, organism-based; design: dose 2 mg/kg, route intravenous; settings: in vivo
# [20] = Clearance in Sprague-Dawley rat at 2 mg/kg, iv measured during 5 mins to 12 hrs by LC-MS analysis; assay type: ADME, organism-based; settings: in vivo
# [21] = system: Human immunodeficiency virus 1; assay: Antiviral activity against HIV1 3B infected in human MT4 cells assessed as reduction in virus-induced cell death incubated for 5 days by MTT assay; assay type: functional, organism-based; settings: Human immunodeficiency virus 1, 3B, MT4, 120 h
# [22] = Acute toxicity in Kunming mouse assessed as induction of abnormal behaviors by measuring anorexia at 1000 mg/kg, ig administered as single dose; assay type: organism-based; settings: in vivo, po
# [23] = Half life in Sprague-Dawley rat at 20 mg/kg, po measured during 5 mins to 12 hrs by LC-MS analysis; settings: in vivo
# [24] = Stability in human plasma assessed as compound remaining level at 2 uM incubated for 120 mins at 37 degC by LC-MS/MS analysis; assay type: ADME, cell-free; settings: 2 h
# TZM = assay: Cytotoxicity in uninfected human TZM-bl assessed as reduction in cell viability incubated for 1 day by Cyto-tox-Glo cytotoxicity assay; assay type: cell-based; settings: 24 h
# [25] = Acute toxicity in Kunming mouse assessed as induction of abnormal behaviors by measuring clonic convulsion at 1000 mg/kg, ig administered as single dose; assay type: organism-based; settings: in vivo, po
# [26] = Cmax in Sprague-Dawley rat at 20 mg/kg, po measured during 5 mins to 12 hrs by LC-MS analysis; assay type: ADME, organism-based; design: dose 20 mg/kg, route oral; settings: in vivo
# [27] = system: Human immunodeficiency virus 1; assay: Antiviral activity against HIV1 Env-pseudotyped virus in human U87.CD4.CCR5 target cells assessed as reduction in viral infection at early stage; assay type: functional, organism-based; settings: Human immunodeficiency virus 1, U87/CD4/CCR5
# [28] = human, microsomes
# Description: Intrinsic clearance in human liver microsomes in presence of NADPH regenerating system by LC-MS/MS analysis
# in vivo [29] = settings: Sprague-Dawley, rat, iv, 2 mg/kg
# [30] = Half life in Sprague-Dawley rat at 2 mg/kg, iv measured during 5 mins to 12 hrs by LC-MS analysis; settings: in vivo
# Structural capsid protein (Human immunodeficiency virus 1), sequence (Q76129 as listed by the source): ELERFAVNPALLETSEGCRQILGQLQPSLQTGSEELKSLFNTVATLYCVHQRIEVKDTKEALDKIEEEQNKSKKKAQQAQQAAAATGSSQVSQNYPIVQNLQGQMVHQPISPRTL
smiles,measurement,setting,value
COc1ccc(N(C)C(=O)[C@H](Cc2ccccc2)NC(=O)CN2CCN(S(=O)(=O)c3ccc(N)cc3)CC2=O)cc1,CC50,MT4,179000 nM
same,Vd,[1],5.75 L/kg
same,AUC,[2],511.5 ng·h/mL
same,IC50,[3],240 nM
same,F,[4],23%
same,EC50,[5],90 nM
same,AUC,[6],120.6 ng·h/mL
same,Activity,[7],Non-Toxic
same,MRT inf,[8],42 min
same,EC50,[9],31 nM
same,inhibition,[10],Active
same,remaining at 1 h,in vitro [11],93.4%
same,MRT inf,[12],108 min
same,Activity,[13],Non-Toxic
same,remaining at 1 h,in vitro [14],0%
same,AUC(0-t),[15],506 ng·h/mL
same,Activity,[16],Non-Toxic
same,Tmax,in vivo [17],15 min
same,Activity,[18],Non-Toxic
same,Cmax,[19],1280 ng/mL
same,clearance,[20],67.7 mL/min/kg
same,EC50,[21],210 nM
same,Activity,[22],Non-Toxic
same,half-life,[23],72 min
same,Stability,[24],88.5%
same,CC50,TZM,> 34500 nM
same,Activity,[25],Non-Toxic
same,Cmax,[26],83.8 ng/mL
same,IC50,[27],8.96 nM
same,CLH,[28],342 µL/min/mg
same,Tmax,in vivo [29],4.98 min
same,half-life,[30],60 min
